The values that follow are results of earlier work, collected in patent publication US6683076B2, “Methods for therapeutic use of glucosylceramide synthesis inhibitors and composition thereof” (Oxford Glyco-Sciences (UK) Ltd, priority 2000, dated 2004).

The conditions of the data set: patients with Parkinson's disease, stroke and spinal cord injuries; cited from earlier work.

As for GM1 ganglioside, the Neurodegenerative processes result is “seem to improve”.
